ChEMBL document CHEMBL1201862, “PubChem BioAssay data set” (2004)
Activity calls are given as the source filed them.

What was measured:
[1] = system: A-375; assay: MITF: Counter assay: A375 proliferation Measured in Cell-Based System Using Plate Reader - 2084-03_Inhibitor_Dose_DryPowder_Activity. [Related pubchem assays (depositor defined):AID488944]; assay type: functional; details: Homo sapiens
[2] = system: A-375; assay: A375 melanoma cell viability reduction, dose response, counter-screen for MITF modulator project, cherry-pick samples, set 2 (AID 540335); assay type: functional, cell-based; details: Homo sapiens
[3] = target: Sphingosine 1-phosphate receptor 1 (Homo sapiens, UniProt P21453); assay: Fluorescence-based counterscreen assay for S1P4 agonists: Cell-based dose response high throughput screening assay to identify agonists of the Sphingosine 1-Phosphate Receptor 1 (S1P1). [Related pubchem assays (depositor defined):AID1509, AID1523, AID1801, AID463107, AID463118, AID463119, AID463122, AID463123, AID463129, AID463225, AID504400, AID504460]; assay type: functional
Sequence of Sphingosine 1-phosphate receptor 1 (P21453 whole entry): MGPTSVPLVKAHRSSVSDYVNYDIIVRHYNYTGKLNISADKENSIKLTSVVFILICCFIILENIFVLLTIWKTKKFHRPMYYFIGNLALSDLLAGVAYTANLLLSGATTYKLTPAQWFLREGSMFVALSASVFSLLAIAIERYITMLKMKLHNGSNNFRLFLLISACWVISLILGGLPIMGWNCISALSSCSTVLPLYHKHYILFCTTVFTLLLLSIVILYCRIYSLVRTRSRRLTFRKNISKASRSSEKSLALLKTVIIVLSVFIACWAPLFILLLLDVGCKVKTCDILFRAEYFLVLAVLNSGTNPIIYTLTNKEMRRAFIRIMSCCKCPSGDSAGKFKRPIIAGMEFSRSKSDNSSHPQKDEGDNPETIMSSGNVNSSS

[4] = target: T1, Sphingosine 1-phosphate receptor 4 (Homo sapiens, UniProt O95977); assay: Fluorescence dose response cell-based high throughput screening assay for agonists of the Sphingosine 1-Phosphate Receptor 4 (S1P4). [Related pubchem assays: 1509 (Primary screen.), 1523 (Confirmation screen in triplicates.)]; assay type: functional
T1 sequence (O95977 whole entry): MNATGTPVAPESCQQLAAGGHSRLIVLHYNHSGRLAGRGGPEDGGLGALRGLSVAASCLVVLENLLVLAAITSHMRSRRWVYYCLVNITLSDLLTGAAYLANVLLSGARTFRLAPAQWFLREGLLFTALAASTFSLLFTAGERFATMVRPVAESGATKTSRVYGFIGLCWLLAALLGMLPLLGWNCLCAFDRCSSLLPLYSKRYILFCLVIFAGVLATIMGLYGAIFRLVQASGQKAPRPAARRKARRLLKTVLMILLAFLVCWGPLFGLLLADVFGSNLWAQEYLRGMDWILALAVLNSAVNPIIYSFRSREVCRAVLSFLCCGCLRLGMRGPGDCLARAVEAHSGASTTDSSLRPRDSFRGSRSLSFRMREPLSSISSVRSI

[5] = target: Lysine-specific demethylase 4C (Homo sapiens, UniProt Q9H3R0); assay: GASC-1 (JMJD2C) histone demethylase inhibitors, dose response, biochemical, DELFIA europium, cherry-picked samples (AID 488835); assay type: functional
Sequence of Lysine-specific demethylase 4C (Q9H3R0 whole entry): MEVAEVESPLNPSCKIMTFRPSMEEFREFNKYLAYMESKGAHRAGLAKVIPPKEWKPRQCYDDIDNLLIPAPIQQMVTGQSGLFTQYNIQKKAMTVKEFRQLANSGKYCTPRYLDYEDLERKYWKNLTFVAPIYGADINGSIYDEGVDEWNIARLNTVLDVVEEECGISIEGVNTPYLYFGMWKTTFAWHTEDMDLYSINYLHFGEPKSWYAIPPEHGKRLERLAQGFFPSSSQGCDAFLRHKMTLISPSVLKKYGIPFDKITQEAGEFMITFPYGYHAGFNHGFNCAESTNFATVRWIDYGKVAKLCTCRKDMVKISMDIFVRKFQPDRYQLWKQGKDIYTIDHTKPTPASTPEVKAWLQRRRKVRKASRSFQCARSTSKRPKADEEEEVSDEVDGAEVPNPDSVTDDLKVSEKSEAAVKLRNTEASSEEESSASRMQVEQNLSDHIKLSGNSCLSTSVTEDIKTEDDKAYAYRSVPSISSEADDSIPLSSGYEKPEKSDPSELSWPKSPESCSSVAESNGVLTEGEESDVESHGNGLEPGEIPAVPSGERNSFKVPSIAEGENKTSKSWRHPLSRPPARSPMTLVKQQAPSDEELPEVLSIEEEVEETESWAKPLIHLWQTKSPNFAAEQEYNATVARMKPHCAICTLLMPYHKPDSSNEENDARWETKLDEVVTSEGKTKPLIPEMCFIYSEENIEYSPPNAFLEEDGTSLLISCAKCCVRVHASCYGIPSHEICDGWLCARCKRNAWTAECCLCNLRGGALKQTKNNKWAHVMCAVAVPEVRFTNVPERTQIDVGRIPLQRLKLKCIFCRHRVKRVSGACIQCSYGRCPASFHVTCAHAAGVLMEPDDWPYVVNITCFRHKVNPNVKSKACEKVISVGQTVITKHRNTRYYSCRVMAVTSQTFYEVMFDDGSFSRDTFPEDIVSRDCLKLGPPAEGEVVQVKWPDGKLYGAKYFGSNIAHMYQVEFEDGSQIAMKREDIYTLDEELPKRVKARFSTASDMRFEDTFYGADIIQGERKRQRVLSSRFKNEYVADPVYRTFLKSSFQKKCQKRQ

[6] = target: T2, Polyadenylate-binding protein 1 (Homo sapiens, UniProt P11940); assay: PABP1 MLLE–PAM2 interaction inhibitors, dose response, miRNA deadenylation inhibitor project, biochemical, fluorescence polarization, Cy5-PAM2 peptide, secondary (AID 602260); assay type: functional; details: read-out: IC50_Mean
T2 sequence (P11940 whole entry): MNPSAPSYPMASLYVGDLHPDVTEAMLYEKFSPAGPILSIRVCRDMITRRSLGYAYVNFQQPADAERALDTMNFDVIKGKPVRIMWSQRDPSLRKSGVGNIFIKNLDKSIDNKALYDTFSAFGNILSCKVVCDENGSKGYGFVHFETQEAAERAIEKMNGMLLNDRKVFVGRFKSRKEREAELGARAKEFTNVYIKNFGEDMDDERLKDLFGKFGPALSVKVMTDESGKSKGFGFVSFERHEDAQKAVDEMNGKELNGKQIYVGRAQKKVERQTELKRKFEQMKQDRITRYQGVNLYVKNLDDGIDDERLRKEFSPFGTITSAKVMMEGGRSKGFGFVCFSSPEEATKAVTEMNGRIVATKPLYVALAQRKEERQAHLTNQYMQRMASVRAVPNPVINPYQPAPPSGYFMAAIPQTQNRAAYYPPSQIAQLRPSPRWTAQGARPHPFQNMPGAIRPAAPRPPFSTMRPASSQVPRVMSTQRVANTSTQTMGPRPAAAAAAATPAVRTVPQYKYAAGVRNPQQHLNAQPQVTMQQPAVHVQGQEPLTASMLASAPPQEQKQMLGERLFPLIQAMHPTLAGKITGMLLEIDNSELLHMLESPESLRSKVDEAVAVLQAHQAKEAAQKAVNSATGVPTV

[7] = target: T2, Polyadenylate-binding protein 1; assay: PABP1 MLLE–PAM2 binding inhibitor potency, dose response, biochemical, fluorescence polarization, FITC-PAM2 peptide (AID 602259); assay type: functional; details: read-out: IC50_Mean
[8] = target: Tumor necrosis factor (Homo sapiens, UniProt P01375); assay: TNFa-triggered NF-kB activation inhibitors, SAR follow-up, cell-based, revised (AID 2337); assay type: functional
Sequence of Tumor necrosis factor (P01375 whole entry, the tested form may be a part): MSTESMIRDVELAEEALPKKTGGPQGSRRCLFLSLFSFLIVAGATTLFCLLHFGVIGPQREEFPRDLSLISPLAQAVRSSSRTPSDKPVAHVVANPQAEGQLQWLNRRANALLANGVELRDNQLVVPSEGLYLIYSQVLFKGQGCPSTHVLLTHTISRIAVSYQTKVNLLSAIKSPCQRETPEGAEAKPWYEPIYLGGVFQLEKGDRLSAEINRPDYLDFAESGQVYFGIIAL

[9] = target: Nucleotide-binding oligomerization domain-containing protein 1 (Homo sapiens, UniProt Q9Y239); assay: NOD1 signaling inhibitors, SAR follow-up, revised (AID 2333); assay type: functional
[10] = target: Nucleotide-binding oligomerization domain-containing protein 2 (Homo sapiens, UniProt Q9HC29); assay: PubChem AID 2334; assay type: functional
Sequence of Nucleotide-binding oligomerization domain-containing protein 2 (Q9HC29 whole entry, the tested form may be a part): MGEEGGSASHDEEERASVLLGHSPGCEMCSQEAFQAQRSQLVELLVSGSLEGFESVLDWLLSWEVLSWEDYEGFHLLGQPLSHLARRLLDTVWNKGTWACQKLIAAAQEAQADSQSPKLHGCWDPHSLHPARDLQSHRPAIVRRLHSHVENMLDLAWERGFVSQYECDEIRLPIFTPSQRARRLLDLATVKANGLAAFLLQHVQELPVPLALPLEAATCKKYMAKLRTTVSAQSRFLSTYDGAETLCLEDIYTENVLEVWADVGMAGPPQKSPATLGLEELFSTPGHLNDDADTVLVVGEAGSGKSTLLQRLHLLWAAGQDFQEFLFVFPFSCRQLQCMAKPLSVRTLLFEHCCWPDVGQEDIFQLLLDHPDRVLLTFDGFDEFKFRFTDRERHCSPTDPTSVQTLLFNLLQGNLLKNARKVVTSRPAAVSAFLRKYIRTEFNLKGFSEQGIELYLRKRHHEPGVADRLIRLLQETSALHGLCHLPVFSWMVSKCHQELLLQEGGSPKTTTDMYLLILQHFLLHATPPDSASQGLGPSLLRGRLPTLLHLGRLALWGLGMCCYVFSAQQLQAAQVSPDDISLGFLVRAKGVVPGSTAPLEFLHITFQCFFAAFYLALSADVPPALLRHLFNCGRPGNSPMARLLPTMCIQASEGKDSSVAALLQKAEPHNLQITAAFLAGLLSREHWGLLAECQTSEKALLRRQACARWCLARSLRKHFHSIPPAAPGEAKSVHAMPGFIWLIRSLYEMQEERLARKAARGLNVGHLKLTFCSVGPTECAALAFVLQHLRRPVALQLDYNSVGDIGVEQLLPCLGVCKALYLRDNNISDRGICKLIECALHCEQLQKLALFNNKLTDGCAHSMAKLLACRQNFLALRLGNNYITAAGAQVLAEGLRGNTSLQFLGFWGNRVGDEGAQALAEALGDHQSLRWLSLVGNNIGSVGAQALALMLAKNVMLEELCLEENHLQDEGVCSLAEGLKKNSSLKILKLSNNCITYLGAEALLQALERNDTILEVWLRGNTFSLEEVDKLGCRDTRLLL

[11] = system: HEK293; assay: cells; details: Homo sapiens
[12] = target: Cytochrome P450 2D6 (Homo sapiens, UniProt P10635);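 note: CYP2D6 member of a cytochrome P450 panel assay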
Sequence of Cytochrome P450 2D6 (P10635 whole entry): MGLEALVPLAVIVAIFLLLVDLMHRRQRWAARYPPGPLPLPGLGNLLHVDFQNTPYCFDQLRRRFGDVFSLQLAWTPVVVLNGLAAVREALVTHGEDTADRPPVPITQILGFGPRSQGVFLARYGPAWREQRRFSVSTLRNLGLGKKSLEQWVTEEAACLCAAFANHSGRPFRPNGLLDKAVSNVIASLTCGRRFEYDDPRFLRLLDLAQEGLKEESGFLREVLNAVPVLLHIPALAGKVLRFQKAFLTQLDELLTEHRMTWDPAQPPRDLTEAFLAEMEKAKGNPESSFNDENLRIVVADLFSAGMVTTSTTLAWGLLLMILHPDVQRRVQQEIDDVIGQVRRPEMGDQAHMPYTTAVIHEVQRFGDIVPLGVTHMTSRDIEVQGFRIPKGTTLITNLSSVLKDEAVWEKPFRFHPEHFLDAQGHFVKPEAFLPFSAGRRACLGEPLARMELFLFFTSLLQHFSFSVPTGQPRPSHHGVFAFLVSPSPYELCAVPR

[13] = target: T3, Heat shock factor protein 1 (Mus musculus, UniProt P38532); assay: inhibition of MG132-induced HSE-luciferase signal, confirmation, cell-based, NIH3T3, luminescence, dose retest (AID 2382); assay type: functional;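 note: NIH3T3 fibroblasts with HSF1-driven luciferase reporter stressed by proteasome inhibitor MG132; luminescence from HSF1-driven luciferase expression after 8 hours of MG132 stress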
T3 sequence (P38532 whole entry): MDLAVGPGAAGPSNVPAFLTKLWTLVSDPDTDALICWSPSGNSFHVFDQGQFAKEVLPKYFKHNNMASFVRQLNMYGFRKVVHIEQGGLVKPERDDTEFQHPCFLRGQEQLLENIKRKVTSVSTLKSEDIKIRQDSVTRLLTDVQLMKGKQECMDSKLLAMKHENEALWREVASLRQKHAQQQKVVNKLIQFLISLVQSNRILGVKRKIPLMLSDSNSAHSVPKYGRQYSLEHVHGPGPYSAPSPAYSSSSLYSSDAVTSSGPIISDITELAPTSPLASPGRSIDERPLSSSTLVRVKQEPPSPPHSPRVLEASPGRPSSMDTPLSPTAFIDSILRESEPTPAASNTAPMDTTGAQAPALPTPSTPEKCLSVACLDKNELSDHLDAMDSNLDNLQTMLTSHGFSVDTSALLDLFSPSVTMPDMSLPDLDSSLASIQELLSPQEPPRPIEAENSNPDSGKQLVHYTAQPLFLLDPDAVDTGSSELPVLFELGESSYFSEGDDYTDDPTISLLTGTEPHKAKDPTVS

[14] = system: HeLa; assay: HeLa cell cytotoxicity, dose response, cytotoxicity control, 24 h, cherry-picked samples (AID 504726); assay type: functional, cell-based; details: Homo sapiens;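 note: potency for cytotoxicity as loss of luminescence signal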
[15] = target: UDP-galactopyranose mutase (Mycobacterium tuberculosis, UniProt P9WIQ1); assay: Inhibitors of Mycobacterium tuberculosis UDP-galactopyranose mutase (UGM) enzyme Measured in Biochemical System Using Plate Reader - 2105-02_Inhibitor_Dose_CherryPick_Activity. [Related pubchem assays (depositor defined):AID504439]
[16] = target: T4, Insulin-degrading enzyme (Homo sapiens, UniProt P14735); assay: activators of recombinant IDE enzyme, dose response, counter-screen for IDE activator project, biochemical, fluorescence polarization (AID 588681)
T4 sequence (P14735 whole entry): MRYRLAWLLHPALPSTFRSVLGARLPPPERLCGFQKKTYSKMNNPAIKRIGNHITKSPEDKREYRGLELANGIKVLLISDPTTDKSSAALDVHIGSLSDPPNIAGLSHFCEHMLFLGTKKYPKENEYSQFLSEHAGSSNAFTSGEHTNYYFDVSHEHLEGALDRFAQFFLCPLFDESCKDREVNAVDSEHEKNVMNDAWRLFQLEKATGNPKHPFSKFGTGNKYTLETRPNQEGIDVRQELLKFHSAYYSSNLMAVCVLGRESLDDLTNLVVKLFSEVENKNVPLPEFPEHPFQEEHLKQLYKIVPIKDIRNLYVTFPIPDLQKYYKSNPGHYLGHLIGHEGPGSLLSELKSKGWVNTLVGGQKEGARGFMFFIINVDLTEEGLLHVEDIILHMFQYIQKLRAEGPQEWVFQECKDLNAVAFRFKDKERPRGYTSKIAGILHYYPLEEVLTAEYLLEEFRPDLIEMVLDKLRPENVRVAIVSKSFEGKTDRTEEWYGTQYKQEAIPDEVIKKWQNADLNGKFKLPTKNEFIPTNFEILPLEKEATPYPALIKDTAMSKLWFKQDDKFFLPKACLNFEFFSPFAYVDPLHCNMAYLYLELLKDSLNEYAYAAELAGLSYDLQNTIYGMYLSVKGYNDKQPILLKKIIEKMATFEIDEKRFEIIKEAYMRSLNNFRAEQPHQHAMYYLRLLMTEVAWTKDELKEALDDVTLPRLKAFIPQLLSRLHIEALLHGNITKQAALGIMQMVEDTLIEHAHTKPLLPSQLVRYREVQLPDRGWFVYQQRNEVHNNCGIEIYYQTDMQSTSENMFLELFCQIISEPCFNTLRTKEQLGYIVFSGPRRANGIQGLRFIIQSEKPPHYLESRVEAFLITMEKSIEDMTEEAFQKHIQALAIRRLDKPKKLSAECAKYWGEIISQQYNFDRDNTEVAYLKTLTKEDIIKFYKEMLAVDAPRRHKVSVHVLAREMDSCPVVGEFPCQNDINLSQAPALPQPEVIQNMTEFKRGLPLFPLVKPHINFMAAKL

[17] = target: T4, Insulin-degrading enzyme; assay: activators of endogenous IDE in HEK cells, dose response, cell-based, fluorescence polarization (AID 588439); assay type: functional
[18] = system: HEK293; assay: HEK cell cytotoxicity by LDH release, dose response, cytotoxicity control for IDE activator project, fluorescence, HEK cells (AID 588440); assay type: functional, cell-based; details: Homo sapiens;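 note: cytotoxicity by LDH release measuring loss of membrane integrity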
[19] = system: HEK293; assay: optical interference in Abeta FP readout, dose response, artefact control for IDE activator project, biochemical, fluorescence polarization (AID 588442); assay type: functional, cell-based; details: Homo sapiens
[20] = target: Cytochrome P450 2C19 (Homo sapiens, UniProt P33261); assay: Cytochrome panel assay with activity outcomes. Panel member name: p450-cyp2c19 Compounds with AC50 equal or less than 10 uM are considered active; assay type: functional
Sequence of Cytochrome P450 2C19 (P33261 whole entry): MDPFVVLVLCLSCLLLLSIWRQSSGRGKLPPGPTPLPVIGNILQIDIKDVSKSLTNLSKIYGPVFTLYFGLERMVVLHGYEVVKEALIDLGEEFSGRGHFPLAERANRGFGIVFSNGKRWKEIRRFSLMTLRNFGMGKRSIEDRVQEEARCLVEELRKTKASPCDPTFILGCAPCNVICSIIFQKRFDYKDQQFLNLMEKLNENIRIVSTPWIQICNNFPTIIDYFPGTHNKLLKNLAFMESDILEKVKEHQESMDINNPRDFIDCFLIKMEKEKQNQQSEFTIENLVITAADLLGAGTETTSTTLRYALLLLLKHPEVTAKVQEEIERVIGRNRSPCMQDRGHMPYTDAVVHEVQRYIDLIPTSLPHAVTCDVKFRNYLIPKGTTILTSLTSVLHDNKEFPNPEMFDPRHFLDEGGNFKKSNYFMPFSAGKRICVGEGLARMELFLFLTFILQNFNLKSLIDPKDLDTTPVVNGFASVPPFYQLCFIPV

[21] = target: T5, Cytochrome P450 1A2 (Homo sapiens, UniProt P05177);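 note: PubChem cytochrome P450 panel assay, CYP1A2 panel member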
T5 sequence (P05177 whole entry): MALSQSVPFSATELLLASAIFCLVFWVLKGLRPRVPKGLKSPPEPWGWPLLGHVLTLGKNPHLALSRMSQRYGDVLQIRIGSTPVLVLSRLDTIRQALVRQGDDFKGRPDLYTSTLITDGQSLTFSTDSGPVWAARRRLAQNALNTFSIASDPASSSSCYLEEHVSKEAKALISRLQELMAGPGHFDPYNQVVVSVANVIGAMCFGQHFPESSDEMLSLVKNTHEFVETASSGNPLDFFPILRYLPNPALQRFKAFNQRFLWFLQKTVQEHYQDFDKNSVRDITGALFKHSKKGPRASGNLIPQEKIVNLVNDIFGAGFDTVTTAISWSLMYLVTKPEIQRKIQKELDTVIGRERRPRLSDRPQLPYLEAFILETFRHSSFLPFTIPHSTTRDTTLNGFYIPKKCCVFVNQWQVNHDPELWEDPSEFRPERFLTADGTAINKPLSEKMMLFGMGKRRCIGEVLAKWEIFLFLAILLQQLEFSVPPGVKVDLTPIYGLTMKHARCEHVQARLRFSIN

[22] = target: Cytochrome P450 2C9 (Homo sapiens, UniProt P11712)
Sequence of Cytochrome P450 2C9 (P11712 whole entry): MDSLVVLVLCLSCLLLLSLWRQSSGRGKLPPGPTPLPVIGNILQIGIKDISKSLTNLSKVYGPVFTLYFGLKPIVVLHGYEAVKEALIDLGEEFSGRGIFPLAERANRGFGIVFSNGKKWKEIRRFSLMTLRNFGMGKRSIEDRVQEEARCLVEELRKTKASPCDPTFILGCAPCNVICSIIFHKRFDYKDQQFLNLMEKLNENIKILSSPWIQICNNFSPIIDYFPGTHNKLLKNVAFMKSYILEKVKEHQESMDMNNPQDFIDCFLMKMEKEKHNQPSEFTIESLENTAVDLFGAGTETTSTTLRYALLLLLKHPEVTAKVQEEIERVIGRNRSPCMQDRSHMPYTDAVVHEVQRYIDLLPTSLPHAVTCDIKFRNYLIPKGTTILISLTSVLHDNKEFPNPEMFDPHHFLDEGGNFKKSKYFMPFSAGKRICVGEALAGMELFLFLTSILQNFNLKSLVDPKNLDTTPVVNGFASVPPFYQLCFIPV

## O=C(Nc1cc2c(cc1Cl)OCCO2)c1ccco1
[1]
  AC50: > 11 µM (active)
[2]
  AC50: > 11 µM (active)

## CNC(=O)c1[nH]cnc1C(=O)N[C@@H](Cc1ccccc1)C(=O)OCc1ccccc1
[3]
  EC50: 3.13 µM (active)
[4]
  EC50: > 16.6 µM (not active)

## O=C(CSc1nc(O)c(Cc2ccccc2)c(=O)[nH]1)c1ccccc1
[5]
  AC50: 16.9 µM (active)
[6]
  IC50: > 66 µM (inactive)
[7]
  IC50: 52.5 µM (inactive)

## O=C(Nc1ccc(CN2CCc3ccccc3C2)cc1)c1ccc(Cl)cc1
[8]
  IC50: > 20 µM (inactive)
[9]
  IC50: > 20 µM (inactive)
[10]
  IC50: > 20 µM (inactive)
[11]
  IC50: > 20 µM (inactive)

## CCS(=O)(=O)N1CCCC(C(=O)NCCCOC(C)C)C1 (stereo not given)
[12]
  AC50: inconclusive

## C/N=C1/S/C(=C\c2cc(C)n(-c3ccccc3F)c2C)C(=O)N1C
[3]
  EC50: 1.18 µM (active)
[13]
  EC50: < 0.16 µM (active)
[4]
  EC50: 0.844 µM (active)

## COc1ccc(N=Nc2nc3ccc(Br)cc3n2C)cc1
[14]
  AC50: 98.3 µM (active)
[15]
  AC50: 145 µM (active)
[16]
  EC50: > 54.7 µM (inactive)
[17]
  EC50: > 54.7 µM (inactive)
[18]
  IC50: > 89.2 µM (inactive)
[19]
  EC50: > 54.7 µM (inactive)

## CCCSc1ccc2nc(NC(=O)OC)[nH]c2c1 [ALBENDAZOLE]
[20]
  AC50: inactive
[21]
  AC50: 0.398 µM (active)
[12]
  AC50: inactive
[22]
  AC50: inactive
